Tests used:
VEGFR2 (KDR) = VEGFR2 (KDR) (Homo sapiens (Human), UniProt P35968); experiment: VEGFR2 Kinase Assay; format: biochemical; details: purified cytoplasmic domain KDR protein, 2.7 μM ATP; read-out: VEGFR2 Enzyme Assay (IC50 nM)
Experimental: VEGFR2 Kinase Assay Biochemical KDR kinase assays were performed in 96 well microtiter plates that were coated overnight with 75 μg/well of poly-Glu-[…]:1) in 10 mM Phosphate Buffered Saline (PBS), pH 7.4. […] Reactions were carried out in 100 μL reaction volumes containing 2.7 μM ATP in kinase buffer (50 mM Hepes buffer pH 7.4, 20 mM MgCl2, 0.1 mM MnCl2 and 0.2 mM Na3VO4). […] Reactions were initiated by the addition 20 ul per well of kinase buffer containing 200-300 ng purified cytoplasmic domain KDR protein (BPS Bioscience, San Diego, Calif.). Following a 15 minute incubation at 30° C., the reactions were washed 2 mls per well PBS-T. 100 μl of a monoclonal anti-phosphotyrosine antibody-peroxidase conjugate diluted 1:10,000 in PBS-T was added to the wells for 30 minutes. Following a 2 mls per well wash with PBS-Tween-20, 100 μl of 0-Phenylenediamine Dihydrochloride in phosphate-citrate buffer, containing urea hydrogen peroxide, was added to the wells for 7-10 minutes as a colorimetric substrate for the peroxidase. […] IC50 values for compound inhibition were calculated directly from graphs of optical density (arbitrary units) versus compound concentration following subtraction of blank values.

VEGFR2 = VEGFR2 (Homo sapiens (Human), UniProt P35968); experiment: VEGFR2 Cellular Assay (VEGF induced intracellular calcium, FLIPR, HUVEC); format: cell-based; details: VEGF165 stimulation (10 ng/mL)
Chain of VEGFR2 (P35968 20-1356): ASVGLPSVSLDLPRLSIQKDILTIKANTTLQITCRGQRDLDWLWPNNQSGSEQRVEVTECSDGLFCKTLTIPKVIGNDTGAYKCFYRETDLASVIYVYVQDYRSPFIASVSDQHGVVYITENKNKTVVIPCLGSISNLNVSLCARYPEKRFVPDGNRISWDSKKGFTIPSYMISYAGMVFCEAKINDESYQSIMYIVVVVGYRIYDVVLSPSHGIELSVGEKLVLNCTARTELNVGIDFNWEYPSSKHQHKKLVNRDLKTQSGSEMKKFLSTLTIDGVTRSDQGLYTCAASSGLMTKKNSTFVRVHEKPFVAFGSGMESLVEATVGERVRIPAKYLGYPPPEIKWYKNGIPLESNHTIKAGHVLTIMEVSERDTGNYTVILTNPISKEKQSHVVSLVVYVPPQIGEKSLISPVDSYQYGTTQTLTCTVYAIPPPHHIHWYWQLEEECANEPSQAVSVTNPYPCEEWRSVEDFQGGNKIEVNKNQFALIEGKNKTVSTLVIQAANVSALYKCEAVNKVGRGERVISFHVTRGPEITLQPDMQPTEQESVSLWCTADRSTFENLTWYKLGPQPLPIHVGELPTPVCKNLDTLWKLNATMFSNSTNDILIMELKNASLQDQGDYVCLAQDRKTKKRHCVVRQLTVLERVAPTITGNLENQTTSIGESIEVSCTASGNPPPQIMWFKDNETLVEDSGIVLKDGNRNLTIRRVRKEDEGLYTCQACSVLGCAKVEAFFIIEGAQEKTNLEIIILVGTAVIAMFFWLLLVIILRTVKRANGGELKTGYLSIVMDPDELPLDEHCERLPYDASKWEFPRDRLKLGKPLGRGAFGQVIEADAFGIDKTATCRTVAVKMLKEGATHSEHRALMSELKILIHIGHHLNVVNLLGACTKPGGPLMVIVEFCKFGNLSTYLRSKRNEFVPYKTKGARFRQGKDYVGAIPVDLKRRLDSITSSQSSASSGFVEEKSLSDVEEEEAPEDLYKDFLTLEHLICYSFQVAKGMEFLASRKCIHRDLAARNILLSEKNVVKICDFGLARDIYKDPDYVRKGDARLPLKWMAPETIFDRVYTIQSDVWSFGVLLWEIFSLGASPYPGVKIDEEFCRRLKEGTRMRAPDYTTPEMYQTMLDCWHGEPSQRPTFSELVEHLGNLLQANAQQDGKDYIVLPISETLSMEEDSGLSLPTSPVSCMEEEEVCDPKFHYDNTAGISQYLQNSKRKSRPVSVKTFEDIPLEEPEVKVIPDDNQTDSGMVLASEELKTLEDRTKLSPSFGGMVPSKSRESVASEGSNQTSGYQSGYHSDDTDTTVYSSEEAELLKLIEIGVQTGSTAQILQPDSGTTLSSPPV
Experimental: (§1) VEGFR2 Cellular Assay Automated FLIPR (Fluorometric Imaging Plate Reader) technology was used to screen for inhibitors of VEGF induced increases in intracellular calcium levels in fluorescent dye loaded endothelial cells. HUVEC (human umbilical vein endothelial cells) (Clonetics) were seeded in 384-well fibronectin coated black-walled plates overnight @ 37° C./5% CO2. Cells were loaded with calcium indicator Fluo-4 for 45 minutes at 37° C. Cells were washed 2 times (Elx405, Biotek Instruments) to remove extracellular dye. For screening, cells were pre-incubated with test agents for 30 minutes, at a single concentration (10 uM) or at concentrations ranging from 0.0001 to 10.0 uM followed by VEGF165 stimulation (10 ng/mL). Changes in fluorescence at 516 nm were measured simultaneously in all 384 wells using a cooled CCD camera. Data were generated by determining max-min fluorescence levels for unstimulated, stimulated, and drug treated samples. IC50 values for test compounds were calculated from % inhibition of VEGF stimulated responses in the absence of inhibitor.

PDGFRβ [1] = target: T1, PDGFRβ (Homo sapiens (Human), UniProt P09619); experiment: PDGFRβ Kinase Assay; format: biochemical; details: purified cytoplasmic domain PDGFR-b protein, 36 μM ATP; read-out: PDGFRβ Enzyme Assay (IC50 nM)
Experimental: Biochemical PDGFRβ kinase assays were performed in 96 well microtiter plates that were coated overnight with 75 μg of poly-Glu-Tyr (4:1) in 10 mM Phosphate Buffered Saline (PBS), pH 7.4.
PBS-T prior to starting the reaction. Reactions were carried out in 100 μL reaction volumes containing 36 μM ATP in kinase buffer (50 mM Hepes buffer pH 7.4, 20 mM MgCl2, 0.1 mM MnCl2 and 0.2 mM Na3VO4). […] Reactions were initiated by the addition 20 ul per well of kinase buffer containing 200-300 ng purified cytoplasmic domain PDGFR-b protein (Millipore). Following a 60 minute incubation at 30° C., the reactions were washed 2 mls per well PBS-T. 100 μl of a monoclonal anti-phosphotyrosine antibody-peroxidase conjugate diluted 1:10,000 in PBS-T was added to the wells for 30 minutes. Following a 2 mls per well wash with PBS-Tween-20, 100 μl of O-Phenylenediamine Dihydrochloride in phosphate-citrate buffer, containing urea hydrogen peroxide, was added to the wells for 7-10 minutes as a colorimetric substrate for the peroxidase. […] IC50 values for compound inhibition were calculated directly from graphs of optical density (arbitrary units) versus compound concentration following subtraction of blank values.
Target sequence in this assay (P09619 554-1106): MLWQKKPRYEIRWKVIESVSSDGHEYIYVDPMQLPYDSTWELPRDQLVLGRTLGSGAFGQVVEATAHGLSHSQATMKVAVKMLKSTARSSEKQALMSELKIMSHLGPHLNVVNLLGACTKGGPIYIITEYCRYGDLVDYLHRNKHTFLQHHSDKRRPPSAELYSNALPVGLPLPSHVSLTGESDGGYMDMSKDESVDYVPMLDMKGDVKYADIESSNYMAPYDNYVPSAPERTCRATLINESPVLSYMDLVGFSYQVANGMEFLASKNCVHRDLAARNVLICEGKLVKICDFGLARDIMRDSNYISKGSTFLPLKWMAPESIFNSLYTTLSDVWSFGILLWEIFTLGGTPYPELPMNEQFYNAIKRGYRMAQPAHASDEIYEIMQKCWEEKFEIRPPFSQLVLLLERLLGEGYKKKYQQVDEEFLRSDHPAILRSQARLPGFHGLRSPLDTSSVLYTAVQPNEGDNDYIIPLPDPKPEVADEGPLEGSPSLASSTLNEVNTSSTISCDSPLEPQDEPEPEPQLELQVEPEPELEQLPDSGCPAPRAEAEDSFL

PDGFRβ [2] = target: T1, PDGFRβ; experiment: PDGFRβ Cellular Assay (PDGF-induced intracellular calcium, FLIPR, NHDF-Ad); format: cell-based; details: PDGF-BB stimulation (30 ng/mL)
Experimental: as §1, with “Automated” for “VEGFR2 Cellular Assay Automated”, “of PDGF-induced” for “of VEGF induced”, “[…]. NHDF-Ad (Normal Human Dermal Fibroblasts, Adult; Lonza)” for “cells. HUVEC (human umbilical vein endothelial cells) (Clonetics)”, “by PDGF-BB” for “by VEGF165”, “stimulation (30” for “stimulation (10”, “of PDGF-BB” for “of VEGF”
Target sequence in this assay (P09619 33-1106): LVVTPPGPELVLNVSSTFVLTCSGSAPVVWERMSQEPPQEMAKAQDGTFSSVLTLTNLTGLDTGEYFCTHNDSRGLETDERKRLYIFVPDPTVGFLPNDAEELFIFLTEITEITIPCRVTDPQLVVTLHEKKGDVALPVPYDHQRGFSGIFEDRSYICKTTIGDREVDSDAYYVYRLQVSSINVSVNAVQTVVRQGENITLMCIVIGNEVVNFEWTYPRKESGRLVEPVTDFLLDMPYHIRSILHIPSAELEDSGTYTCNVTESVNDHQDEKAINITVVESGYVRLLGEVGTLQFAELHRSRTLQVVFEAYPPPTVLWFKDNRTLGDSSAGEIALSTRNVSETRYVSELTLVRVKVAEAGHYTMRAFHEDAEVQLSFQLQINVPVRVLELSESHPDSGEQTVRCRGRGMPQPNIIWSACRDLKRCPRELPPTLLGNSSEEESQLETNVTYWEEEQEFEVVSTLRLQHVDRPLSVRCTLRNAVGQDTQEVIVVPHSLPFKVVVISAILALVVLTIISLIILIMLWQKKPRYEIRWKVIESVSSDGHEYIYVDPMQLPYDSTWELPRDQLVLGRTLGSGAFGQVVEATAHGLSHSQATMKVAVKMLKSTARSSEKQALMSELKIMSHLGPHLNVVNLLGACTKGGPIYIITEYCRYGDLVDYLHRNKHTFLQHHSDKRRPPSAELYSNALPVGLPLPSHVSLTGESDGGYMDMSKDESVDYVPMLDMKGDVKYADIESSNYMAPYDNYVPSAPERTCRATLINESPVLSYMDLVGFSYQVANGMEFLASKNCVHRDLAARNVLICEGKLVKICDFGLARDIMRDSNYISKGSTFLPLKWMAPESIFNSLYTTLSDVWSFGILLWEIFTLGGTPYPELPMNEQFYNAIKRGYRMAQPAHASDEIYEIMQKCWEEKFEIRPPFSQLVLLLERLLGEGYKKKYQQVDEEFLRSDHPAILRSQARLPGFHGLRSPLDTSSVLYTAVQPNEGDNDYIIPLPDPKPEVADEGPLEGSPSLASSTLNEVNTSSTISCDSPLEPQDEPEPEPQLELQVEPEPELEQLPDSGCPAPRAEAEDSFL

Chain of VEGFR2 (KDR) (P35968 786-1356): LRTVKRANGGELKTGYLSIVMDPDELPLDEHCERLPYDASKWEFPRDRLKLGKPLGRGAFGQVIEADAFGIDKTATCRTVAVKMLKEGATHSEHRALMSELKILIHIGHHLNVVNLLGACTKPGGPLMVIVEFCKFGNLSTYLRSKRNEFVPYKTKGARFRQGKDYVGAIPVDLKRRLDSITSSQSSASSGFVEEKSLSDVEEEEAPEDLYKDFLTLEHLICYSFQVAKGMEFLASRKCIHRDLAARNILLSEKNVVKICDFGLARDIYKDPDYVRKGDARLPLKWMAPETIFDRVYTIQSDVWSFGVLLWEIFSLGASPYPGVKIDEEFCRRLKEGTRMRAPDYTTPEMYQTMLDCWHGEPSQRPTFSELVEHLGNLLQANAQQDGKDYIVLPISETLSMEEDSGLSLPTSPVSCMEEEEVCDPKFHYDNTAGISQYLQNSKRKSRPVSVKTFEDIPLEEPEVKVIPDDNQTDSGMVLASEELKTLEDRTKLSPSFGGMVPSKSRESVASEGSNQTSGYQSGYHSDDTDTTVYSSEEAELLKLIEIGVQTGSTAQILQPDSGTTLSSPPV

Cc1ccoc1C(=O)Nc1cccc(C#Cc2cc(C(=O)N=S(C)(C)=O)cnc2N)c1 [Example 1, 6-Amino-N-[dimethyl(oxido)-λ^4-sulfanylidene]-5-({3-[(3-methyl-2-furoyl)amino]phenyl}ethynyl)nicotinamide]
IC50 (VEGFR2 (KDR)): 6 nM
IC50 (VEGFR2): 1 nM
IC50 (PDGFRβ [1]): 16 nM
IC50 (PDGFRβ [2]): 11 nM

Cc1ccoc1C(=O)Nc1cccc(C#Cc2cncc(C(=O)N=S3(=O)CCCC3)c2)c1 [Example 3, 5-({3-[(3-Methyl-2-furoyl)amino]phenyl}ethynyl)-N-(1-oxidotetrahydro-1H-λ^4-thien-1-ylidene)nicotinamide]
IC50 (VEGFR2 (KDR)): 2 nM
IC50 (VEGFR2): 3 nM
IC50 (PDGFRβ [1]): 34 nM
IC50 (PDGFRβ [2]): 66 nM

Cc1ccoc1C(=O)Nc1cccc(C#Cc2cc(C(=O)N=S3(=O)CCCC3)cnc2N)c1 [Example 4, 6-Amino-5-({3-[(3-methyl-2-furoyl)amino]phenyl}ethynyl)-N-(1-oxidotetrahydro-1H-1λ^4-thien-1-ylidene)nicotinamide]
IC50 (VEGFR2 (KDR)): 2 nM
IC50 (VEGFR2): 2 nM
IC50 (PDGFRβ [1]): 30 nM
IC50 (PDGFRβ [2]): 15 nM

CS(C)(=O)=NC(=O)c1cnc(N)c(C#Cc2cccc(NC(=O)c3ccc(Cl)cc3)c2)c1 [Example 5, 6-Amino-5-({3-[(4-chlorobenzoyl)amino]phenyl}ethynyl)-N-[dimethyl(oxido)-λ^4-sulfanylidene]nicotinamide]
IC50 (VEGFR2 (KDR)): 2 nM
IC50 (VEGFR2): 9 nM
IC50 (PDGFRβ [1]): 22 nM

Cn1ccnc1C(=O)Nc1cccc(C#Cc2cc(C(=O)N=S(C)(C)=O)cnc2N)c1 [Example 7, 6-Amino-N-[dimethyl(oxido)-λ^4-sulfanylidene]-5-[(3-{[(1-methyl-1H-imidazol-2-yl)carbonyl]amino}phenyl)ethynyl]nicotinamide]
IC50 (VEGFR2 (KDR)): 6 nM
IC50 (VEGFR2): 51 nM

Cc1ccc(F)c(NC(=O)Nc2cccc(C#Cc3cncc(C(=O)N=S(C)(C)=O)c3)c2)c1 [Example 8, N-[Dimethyl(oxido)-λ^4-sulfanylidene]-5-{[3-({[(2-fluoro-5-methylphenyl)amino]carbonyl}amino)phenyl]ethynyl}nicotinamide]
IC50 (VEGFR2 (KDR)): 3 nM
IC50 (VEGFR2): 10 nM
IC50 (PDGFRβ [2]): 28 nM

CS(C)(=O)=NC(=O)c1cncc(C#Cc2cccc(NC(=O)Nc3ccccc3F)c2)c1 [Example 9, N-[Dimethyl(oxido)-λ^4-sulfanylidene]-5-{[3-({[(2-fluorophenyl)amino]carbonyl}amino)phenyl]ethynyl}nicotinamide]
IC50 (VEGFR2 (KDR)): 8 nM
IC50 (VEGFR2): 48 nM

Cc1cccc(NC(=O)Nc2cccc(C#Cc3cncc(C(=O)N=S(C)(C)=O)c3)c2)c1 [Example 10, N-[Dimethyl(oxido)-λ^4-sulfanylidene]-5-{[3-({[(3-methylphenyl)amino]carbonyl}amino)phenyl]ethynyl}nicotinamide]
IC50 (VEGFR2 (KDR)): 8 nM
IC50 (VEGFR2): 11 nM
IC50 (PDGFRβ [1]): 19 nM

Cc1ccc(NC(=O)Nc2cccc(C#Cc3cncc(C(=O)N=S(C)(C)=O)c3)c2)cc1 [Example 11, N-[Dimethyl(oxido)-λ^4-sulfanylidene]-5-{[3-({[(4-methylphenyl)amino]carbonyl}amino)phenyl]ethynyl}nicotinamide]
IC50 (VEGFR2 (KDR)): 6 nM
IC50 (VEGFR2): 15 nM
IC50 (PDGFRβ [1]): 19 nM

Cc1ccoc1C(=O)Nc1cccc(C#Cc2cc(C(=O)N=S(C)(=O)CCCCC(=O)O)cnc2N)c1 (stereo not drawn) [Example 24, 5-(N-{[6-amino-5-({3-[(3-methyl-2-furoyl)amino]phenyl}ethynyl)pyridin-3-yl]carbonyl}-S-methylsulfonimidoyl)pentanoic acid]
IC50 (VEGFR2 (KDR)): 5 nM
IC50 (VEGFR2): 46 nM

COC(=O)CCCCS(C)(=O)=NC(=O)c1cnc(N)c(C#Cc2cccc(NC(=O)c3cc(C)ccc3F)c2)c1 (stereo not drawn) [Example 25, Methyl 5-(N-{[6-amino-5-({3-[(2-fluoro-5-methylbenzoyl)amino]phenyl}ethynyl)pyridin-3-yl]carbonyl}-S-methylsulfonimidoyl)pentanoate]
IC50 (VEGFR2 (KDR)): 8 nM
IC50 (PDGFRβ [1]): 45 nM
IC50 (PDGFRβ [2]): 27 nM

COC(=O)CCCCS(C)(=O)=NC(=O)c1cnc(N)c(C#Cc2cccc(NC(=O)c3cc(C(F)(F)F)ccc3F)c2)c1 (stereo not drawn) [Example 27, Methyl 5-[N-({6-amino-5-[(3-{[2-fluoro-5-(trifluoromethyl)benzoyl]amino}phenyl)ethynyl]pyridin-3-yl}carbonyl)-S-methylsulfonimidoyl]pentanoate]
IC50 (VEGFR2 (KDR)): 10 nM
IC50 (VEGFR2): 1 nM
IC50 (PDGFRβ [1]): 40 nM
IC50 (PDGFRβ [2]): 19 nM

COC(=O)CCCCS(C)(=O)=NC(=O)c1cnc(N)c(C#Cc2cccc(NC(=O)c3cccc(C(F)(F)F)c3)c2)c1 (stereo not drawn) [Example 28, Methyl 5-[N-({6-amino-5-[(3-{[3-(trifluoromethyl)benzoyl]amino}phenyl)ethynyl]pyridin-3-yl}carbonyl)-S-methylsulfonimidoyl]pentanoate]
IC50 (VEGFR2 (KDR)): 4 nM
IC50 (VEGFR2): 4 nM
IC50 (PDGFRβ [1]): 9 nM
IC50 (PDGFRβ [2]): 12 nM

COC(=O)CCCCS(C)(=O)=NC(=O)c1cnc(N)c(C#Cc2cccc(C(=O)Nc3cc(C)ccc3F)c2)c1 (stereo not drawn) [Example 35, Methyl 5-[N-({6-amino-5-[(3-{[(2-fluoro-5-methylphenyl)amino]carbonyl}phenyl)ethynyl]pyridin-3-yl}carbonyl)-S-methylsulfonimidoyl]pentanoate]
IC50 (VEGFR2 (KDR)): 17 nM
IC50 (PDGFRβ [2]): 43 nM

COC(=O)CCCCS(C)(=O)=NC(=O)c1cnc(N)c(C#Cc2cccc(C(=O)Nc3cc(C(C)(C)C)on3)c2)c1 (stereo not drawn) [Example 36, Methyl 5-[N-({6-amino-5-[(3-{[(5-tert-butylisoxazol-3-yl)amino]carbonyl}phenyl)ethynyl]pyridin-3-yl}carbonyl)-S-methylsulfonimidoyl]pentanoate]
IC50 (VEGFR2 (KDR)): 10 nM
IC50 (VEGFR2): 1 nM
IC50 (PDGFRβ [2]): 18 nM

COC(=O)CCCCS(C)(=O)=NC(=O)c1cnc(N)c(C#Cc2cccc(NC(=O)Nc3cc(C)ccc3F)c2)c1 (stereo not drawn) [Example 37, Methyl 5-{N-[(6-amino-5-{[3-({[(2-fluoro-5-methylphenyl)amino]carbonyl}amino)phenyl]ethynyl}pyridin-3-yl)carbonyl]-S-methylsulfonimidoyl}pentanoate]
IC50 (VEGFR2 (KDR)): 5 nM
IC50 (PDGFRβ [1]): 14 nM
IC50 (PDGFRβ [2]): 44 nM

COC(=O)CCCCS(C)(=O)=NC(=O)c1cnc(N)c(C#Cc2cccc(NC(=O)Nc3cccc(C)c3)c2)c1 (stereo not drawn) [Example 38, Methyl 5-{N-[(6-amino-5-{[3-({[(3-methylphenyl)amino]carbonyl}amino)phenyl]ethynyl}pyridin-3-yl)carbonyl]-S-methylsulfonimidoyl}pentanoate]
IC50 (VEGFR2 (KDR)): 4 nM
IC50 (PDGFRβ [1]): 13 nM
IC50 (PDGFRβ [2]): 25 nM

(R)—N-[(3-Hydroxypropyl)(methyl)oxido-λ^4-sulfanylidene]-5-({3-[(3-methyl-2-furoyl)amino]phenyl}ethynyl)nicotinamide [Example 40]
IC50 (VEGFR2 (KDR)): 3 nM
IC50 (VEGFR2): 2 nM
